In test [1] the target is T1, human leukocytic elastase (HLE) (Homo sapiens, UniProt P08246).
T1 sequence (P08246 30-267): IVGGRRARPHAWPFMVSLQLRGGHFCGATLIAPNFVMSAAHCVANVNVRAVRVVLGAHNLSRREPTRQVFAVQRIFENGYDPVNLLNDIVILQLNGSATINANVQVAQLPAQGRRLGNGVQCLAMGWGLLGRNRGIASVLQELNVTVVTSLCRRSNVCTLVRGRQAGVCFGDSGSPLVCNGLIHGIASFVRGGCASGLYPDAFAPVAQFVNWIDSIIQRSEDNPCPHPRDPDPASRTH
The experiment in a line: Anti-elastase test: hydrolysis of N-methoxysuccinyl-alanine-proline-valine-para-nitroanilide, spectrophotometry at 410 nm. Format: biochemical. The protocol:
Such a substance can be, for example, N-methoxysuccinyl-alanine-proline-valine-para-nitroanilide, a normally colourless substance which releases, by hydrolysis with human leukocytic elastase, a coloured product, para-nitroaniline, whose appearance kinetics can be monitored by spectrophotometry at 410 nm.
The reaction is carried out in a spectrophotometer thermostatically set at 25° C. and equipped with a sample changer. All of the kinetics are carried out a minimum of three times, the average and the standard deviation then being calculated for the three values obtained.
The presence of a molecule with anti-elastase activity is reflected by a limitation of the appearance of the coloured product and the anti-elastase effect can then be calculated relative to a control curve obtained in the absence or the said molecule.
A correlation thus exists between the percentage of inhibition of the appearance of the coloured product by the test compound and the percentage of inhibition of human leukocytic elastase.

For test [2], the system named is Staphylococcus epidermis. The test can be described thus: Minimum inhibitory concentration at pH 5 on growth of Staphylococcus epidermis. Format: cell-based. Conditions: Staph. Epidermis, pH 5, product alone. The protocol: (§1) a) The minimum inhibitory concentration, at pH 5, of composition according to the invention on the growth of the strains below was determined:
(§2) b) The minimum inhibitory concentration, at pH 5, on the growth of the same strains for an octanoylglycine+zinc gluconate combination was determined.

For test [3], the system named is Staphylococcus aureus. The experiment in a line: Minimum inhibitory concentration at pH 5 on growth of Staphylococcus aureus. The following applies: Staph. Aureus, pH 5, product alone. The class given is cell-based. The protocol: as §1, §2
For test [4], the system named is Propionibacterium acnes. The experiment in a line: Minimum inhibitory concentration at pH 5 on growth of Propionibacterium acnes. Format: cell-based. The following applies: P. acnes, pH 5, product alone. As for the experimental part:
as §1, §2

In test [5] the test system is lipase. The test can be described thus: Anti-lipase test: titration of free fatty acids formed from triglycerides. The class given is biochemical. As for the experimental part:
The test involves assaying the free fatty acids obtained by degradation of the triglycerides with lipase. A known amount of triglycerides (“Lipase Substrate” sold by the company Sigma), a known amount of lipase (“Enzyme Control 2E” sold by the company Sigma) and the test composition are placed together in a tube. After an incubation period of three hours at 37° C., the enzymatic reaction is stopped and the free fatty acids formed are assayed by titration with 0.05 M sodium hydroxide. The results are expressed as a percentage of inhibition of the enzyme by the composition considered, by comparing it with a control test.

For the molecule `CCCCCCCC(=O)NCC(=O)O` [octanoylglycine], the “% inhibition of elastase” value in test [1] (0.625% octanoylglycine alone) is given as 5%. Moreover, the “inhibitory activity on elastase (in words)” value in test [1] (at the concentrations tested) was “no inhibitory activity”. Further, the figures for the minimum inhibitory concentration in test [2], in test [3] and in test [4] were 0.20%, 0.25% and 0.5%, respectively. In addition, the “percentage of inhibition of lipase” value in test [5] (1.6% octanoylglycine, 3 hours at 37° C.) turned out to be 44%.
As for zinc gluconate, the minimum inhibitory concentration in test [2] is reported as 10.5%; in test [3], 0.5%; in test [4], 1%. For the same molecule, the “percentage of inhibition of lipase” value in test [5] (0.13% solution of zinc gluconate, same operating conditions) turned out to be 40%.
